The target in test [1] is T1, GSK3B (Homo sapiens, UniProt P49841). The experiment in a line: In vitro enzymatic activity assay, GSK3β. The note with it: 1.0 mM ATP, 1.0 μM peptide substrate, 120 min, 25° C, read-out: Enzyme GSK3β (IC50). Format: biochemical. Set-up: Full length human GSK3α or GSK3B expressed as N-terminal GST fusion proteins; GST (N); purchased Carna Biosciences (Japan); host or cells: baculovirus host.

Test [2] deals with T1, GSK3B. In words: NanoBRET cellular target engagement assay, Nanoluc-GSK3B in HEK293 cells. Format: cell-based. The arrangement: expressed in transfected cells. The note with it: NanoBRET GSK3β IC50, HEK293 cells, tracer K-8, 2 hours, 37° C.
Another test deals with T2, GSK3A (Homo sapiens, UniProt P49840).
T2 construct: expressed in transfected cells
In words: NanoBRET cellular target engagement assay, Nanoluc-GSK3A in HEK293 cells. In kind it is cell-based. The following applies: NanoBRET GSK3α IC50, HEK293 cells, tracer K-8, 2 hours, 37° C. (BRET reads energy transfer from a luciferase to a nearby fluorophore.)

A further test concerns the target T3, human GSK3α (Homo sapiens, UniProt P49840).
T3 construct: Full length human GSK3α or GSK3B expressed as N-terminal GST fusion proteins; GST (N); purchased Carna Biosciences (Japan); host or cells: baculovirus host
The experiment in a line: In vitro enzymatic activity assay, GSK3α. Format: biochemical. The following applies: 1.0 mM ATP, 1.0 μM peptide substrate, 120 min, 25° C, read-out: Enzyme GSK3α (IC50).

SMILES strings stand for the structures.

IC50 data for 20 molecules are collected here from patent US20260327191A1, “GSK3a INHIBITORS AND METHODS OF USE THEREOF” (Blueprint Medicines Corporation, priority 2023, published 2026).

As usually defined, the IC50 is the midpoint of a concentration-inhibition curve.

T1 sequence (P49841 whole entry, the tested form may be a part): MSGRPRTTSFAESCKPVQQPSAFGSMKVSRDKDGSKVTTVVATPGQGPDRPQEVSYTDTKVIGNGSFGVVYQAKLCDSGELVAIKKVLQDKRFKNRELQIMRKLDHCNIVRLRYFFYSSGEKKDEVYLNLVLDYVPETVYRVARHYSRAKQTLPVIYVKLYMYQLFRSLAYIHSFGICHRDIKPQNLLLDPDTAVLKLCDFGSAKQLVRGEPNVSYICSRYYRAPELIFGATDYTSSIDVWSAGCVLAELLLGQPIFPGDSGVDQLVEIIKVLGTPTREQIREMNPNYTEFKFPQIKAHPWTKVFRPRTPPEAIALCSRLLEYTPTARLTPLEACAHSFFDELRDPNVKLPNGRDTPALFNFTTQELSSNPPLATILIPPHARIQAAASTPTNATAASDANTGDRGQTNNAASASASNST
T3 sequence (P49840 whole entry, the tested form may be a part): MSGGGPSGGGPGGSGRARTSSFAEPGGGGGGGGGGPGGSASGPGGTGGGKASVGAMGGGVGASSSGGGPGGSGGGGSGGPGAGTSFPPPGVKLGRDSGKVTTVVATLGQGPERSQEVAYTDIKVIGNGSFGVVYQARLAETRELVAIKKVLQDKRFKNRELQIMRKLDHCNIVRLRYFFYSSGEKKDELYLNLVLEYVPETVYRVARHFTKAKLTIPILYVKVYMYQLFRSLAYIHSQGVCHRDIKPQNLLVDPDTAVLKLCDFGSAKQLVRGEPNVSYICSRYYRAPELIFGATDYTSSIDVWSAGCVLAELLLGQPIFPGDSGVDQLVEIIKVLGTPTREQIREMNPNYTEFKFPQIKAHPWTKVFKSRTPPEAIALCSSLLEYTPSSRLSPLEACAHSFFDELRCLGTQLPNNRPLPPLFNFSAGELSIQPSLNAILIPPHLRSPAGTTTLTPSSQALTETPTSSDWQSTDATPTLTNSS
T2 sequence (P49840 whole entry): as the sequence (P49840 whole entry, the tested form may be a part) above

As to `CCC[C@@H](N)c1cncc(NC(=O)c2c(N)ncn(-c3c(C)cc(OCC)cc3C)c2=O)c1` [Example 94, (R)-4-amino-N-(5-(1-aminobutyl)pyridin-3-yl)-1-(4-ethoxy-2,6-dimethylphenyl)-6-oxo-1,6-dihydropyrimidine-5-carboxamide], the IC50 at GSK3B [1] was determined as 0.598 µM; at GSK3B [2], 0.384 µM; against GSK3A it was 0.0066 µM; on human GSK3α, 0.0076 µM.

As to `Cc1cc(C(F)F)cc(C)c1-n1cnc(N)c(C(=O)Nc2cncc([C@H]3CCCCN3)c2)c1=O` [Example 97, (R)-4-amino-1-(4-(difluoromethyl)-2,6-dimethylphenyl)-6-oxo-N-(5-(piperidin-2-yl)pyridin-3-yl)-1,6-dihydropyrimidine-5-carboxamide], the IC50 at GSK3B [1] is 0.23 µM; at GSK3B [2], 0.121 µM; against GSK3A, 0.0018 µM; at human GSK3α, 0.0036 µM.

For `COCc1cc(C)c(-n2cnc(N)c(C(=O)Nc3cncc([C@H]4CCCCN4)c3)c2=O)c(C)c1` [Example 98, (R)-4-amino-1-(4-(methoxymethyl)-2,6-dimethylphenyl)-6-oxo-N-(5-(piperidin-2-yl)pyridin-3-yl)-1,6-dihydropyrimidine-5-carboxamide], the IC50 on GSK3B [1] turned out to be 0.254 µM; against GSK3B [2], 0.134 µM; against GSK3A, 0.0025 µM; at human GSK3α, 0.0046 µM.

In the case of `CNCc1cncc(NC(=O)c2c(N)ncn(-c3c(C)cc(COC)cc3C)c2=O)c1` [Example 99, 4-amino-1-(4-(methoxymethyl)-2,6-dimethylphenyl)-N-(5-((methylamino)methyl)pyridin-3-yl)-6-oxo-1,6-dihydropyrimidine-5-carboxamide], the IC50 at GSK3B [1] was 1.02 µM; against GSK3B [2], 0.565 µM; against GSK3A, 0.0074 µM; on human GSK3α, 0.0205 µM.

In the case of `CNCc1cncc(NC(=O)c2c(N)ncn(-c3c(C)cc(C(F)F)cc3C)c2=O)c1` [Example 105, 4-amino-1-(4-(difluoromethyl)-2,6-dimethylphenyl)-N-(5-((methylamino)methyl)pyridin-3-yl)-6-oxo-1,6-dihydropyrimidine-5-carboxamide], the IC50 at GSK3B [1] was 1.13 µM; at GSK3B [2] it was 0.577 µM; at GSK3A it was 0.0072 µM; at human GSK3α it was 0.0193 µM.

As for `CCC[C@@H](N)c1cncc(NC(=O)c2c(N)ncn(-c3c(C)cc(C(F)F)cc3C)c2=O)c1` [Example 106, (R)-4-amino-N-(5-(1-aminobutyl)pyridin-3-yl)-1-(4-(difluoromethyl)-2,6-dimethylphenyl)-6-oxo-1,6-dihydropyrimidine-5-carboxamide], the IC50 was found to be 0.279 µM on GSK3B [1], 0.195 µM against GSK3B [2], 0.0028 µM on GSK3A and 0.0045 µM at human GSK3α.

For `Nc1ncn(-c2c(Cl)cc(OC(F)(F)F)cc2Cl)c(=O)c1C(=O)Nc1cncc([C@@H]2CCCN2)c1` [Example 109, (S)-4-amino-1-(2,6-dichloro-4-(trifluoromethoxy)phenyl)-6-oxo-N-(5-(pyrrolidin-2-yl)pyridin-3-yl)-1,6-dihydropyrimidine-5-carboxamide], the IC50 at GSK3B [1] was determined as 0.803 µM; on GSK3B [2] it was 0.567 µM; at GSK3A, 0.0084 µM; at human GSK3α, 0.0156 µM.

On to `Cc1cc(OC(F)(F)F)cc(C)c1-n1cnc(N)c(C(=O)Nc2cncc([C@H]3CCCCN3)c2)c1=O` [Example 110, (R)-4-amino-1-(2,6-dimethyl-4-(trifluoromethoxy)phenyl)-6-oxo-N-(5-(piperidin-2-yl)pyridin-3-yl)-1,6-dihydropyrimidine-5-carboxamide], for which the IC50 on GSK3B [1] is 0.568 µM; against GSK3B [2], 0.335 µM; on GSK3A, 0.0037 µM; at human GSK3α, 0.0099 µM.

For the molecule `Nc1ncn(-c2c(Cl)cc(C(F)(F)F)cc2Cl)c(=O)c1C(=O)Nc1cncc([C@@H]2CCCN2)c1` [Example 118, (S)-4-amino-1-(2,6-dichloro-4-(trifluoromethyl)phenyl)-6-oxo-N-(5-(pyrrolidin-2-yl)pyridin-3-yl)-1,6-dihydropyrimidine-5-carboxamide], the IC50 at GSK3B [1] was 0.45 µM; against GSK3B [2], 0.566 µM; on GSK3A, 0.0094 µM; at human GSK3α, 0.0112 µM.

As to `Nc1ncn(-c2c(Cl)cc(C(F)(F)F)cc2Cl)c(=O)c1C(=O)Nc1cncc([C@@H]2CCCCN2)c1` [Example 119, (S)-4-amino-1-(2,6-dichloro-4-(trifluoromethyl)phenyl)-6-oxo-N-(5-(piperidin-2-yl)pyridin-3-yl)-1,6-dihydropyrimidine-5-carboxamide], the IC50 at GSK3B [1] was 0.414 µM; against GSK3B [2], 0.502 µM; against GSK3A it was 0.0081 µM; at human GSK3α, 0.0081 µM.

Regarding `NCc1cncc(NC(=O)c2c(N)ncn(-c3c(Cl)cc(C(F)(F)F)cc3Cl)c2=O)c1` [Example 120, 4-amino-N-(5-(aminomethyl)pyridin-3-yl)-1-(2,6-dichloro-4-(trifluoromethyl)phenyl)-6-oxo-1,6-dihydropyrimidine-5-carboxamide], the IC50 on GSK3B [1] stood at 0.442 µM; against GSK3B [2] it was 0.274 µM; at GSK3A it was 0.0044 µM; on human GSK3α, 0.0094 µM.

As to `CN(C)c1cc(Cl)c(-n2cnc(N)c(C(=O)Nc3cncc([C@@H]4CCCCN4)c3)c2=O)c(Cl)c1` [Example 123, (S)-4-amino-1-(2,6-dichloro-4-(dimethylamino)phenyl)-6-oxo-N-(5-(piperidin-2-yl)pyridin-3-yl)-1,6-dihydropyrimidine-5-carboxamide], the IC50 at GSK3B [1] is 0.266 µM; against GSK3B [2], 0.203 µM; at GSK3A, 0.0033 µM; on human GSK3α, 0.0048 µM.

Consider `CC(C)Oc1cc(Cl)c(-n2cnc(N)c(C(=O)Nc3cncc([C@@H]4CCCCN4)c3)c2=O)c(Cl)c1` [Example 124, (S)-4-amino-1-(2,6-dichloro-4-isopropoxyphenyl)-6-oxo-N-(5-(piperidin-2-yl)pyridin-3-yl)-1,6-dihydropyrimidine-5-carboxamide], for which the IC50 at GSK3B [1] came out at 0.393 µM; at GSK3B [2], 0.404 µM; at GSK3A, 0.0078 µM; at human GSK3α, 0.007 µM.

In the case of `CCCOc1cc(C)c(-n2cnc(N)c(C(=O)Nc3cncc([C@H]4CCCCN4)c3)c2=O)c(C)c1` [Example 125, (R)-4-amino-1-(2,6-dimethyl-4-propoxyphenyl)-6-oxo-N-(5-(piperidin-2-yl)pyridin-3-yl)-1,6-dihydropyrimidine-5-carboxamide], the IC50 at GSK3B [1] worked out at 0.296 µM; against GSK3B [2], 0.163 µM; against GSK3A it was 0.0027 µM; on human GSK3α, 0.0049 µM.

For the molecule `CCCOc1cc(C)c(-n2cnc(N)c(C(=O)Nc3cncc(CNC)c3)c2=O)c(C)c1` [Example 127, 4-amino-1-(2,6-dimethyl-4-propoxyphenyl)-N-(5-((methylamino)methyl)pyridin-3-yl)-6-oxo-1,6-dihydropyrimidine-5-carboxamide], the IC50 on GSK3B [1] was found to be 0.767 µM; against GSK3B [2], 0.65 µM; on GSK3A it was 0.0096 µM; at human GSK3α, 0.0186 µM.

On to `CCOCc1cc(C)c(-n2cnc(N)c(C(=O)Nc3cncc([C@H]4CCCCN4)c3)c2=O)c(C)c1` [Example 131, (R)-4-amino-1-(4-(ethoxymethyl)-2,6-dimethylphenyl)-6-oxo-N-(5-(piperidin-2-yl)pyridin-3-yl)-1,6-dihydropyrimidine-5-carboxamide], for which the IC50 at GSK3B [1] amounted to 0.202 µM; at GSK3B [2] it was 0.159 µM; at GSK3A, 0.0023 µM; at human GSK3α it was 0.0049 µM.

In the case of `CCOc1cc(Cl)c(-n2cnc(N)c(C(=O)Nc3cncc([C@@H]4CCCCN4)c3)c2=O)c(Cl)c1` [Example 133, (S)-4-amino-1-(2,6-dichloro-4-ethoxyphenyl)-6-oxo-N-(5-(piperidin-2-yl)pyridin-3-yl)-1,6-dihydropyrimidine-5-carboxamide], the IC50 on GSK3B [1] is 0.508 µM; against GSK3B [2], 0.35 µM; against GSK3A, 0.0061 µM; at human GSK3α, 0.0097 µM.

As for `Cc1cc(C)c(-n2cnc(N)c(C(=O)Nc3cncc([C@H]4CCCCN4)c3)c2=O)c(C)c1` [Example 145, (R)-4-amino-1-mesityl-6-oxo-N-(5-(piperidin-2-yl)pyridin-3-yl)-1,6-dihydropyrimidine-5-carboxamide], the IC50 on GSK3B [1] is 0.129 µM; at GSK3B [2], 0.0962 µM; against GSK3A, 0.001 µM; at human GSK3α, 0.003 µM.

In the case of `Nc1ncn(-c2c(Cl)cc(F)cc2Cl)c(=O)c1C(=O)Nc1cncc([C@@H]2CCCN2)c1` [Example 149, (S)-4-amino-1-(2,6-dichloro-4-fluorophenyl)-6-oxo-N-(5-(pyrrolidin-2-yl)pyridin-3-yl)-1,6-dihydropyrimidine-5-carboxamide], the IC50 on GSK3B [1] stood at 0.552 µM; against GSK3B [2], 0.519 µM; against GSK3A, 0.0086 µM; on human GSK3α, 0.0134 µM.

Take `Nc1ncn(-c2c(Cl)cncc2Cl)c(=O)c1C(=O)Nc1cncc([C@H]2CCCCN2)c1` [Example 152, (R)-4-amino-1-(3,5-dichloropyridin-4-yl)-6-oxo-N-(5-(piperidin-2-yl)pyridin-3-yl)-1,6-dihydropyrimidine-5-carboxamide]: the IC50 on GSK3B [1] turned out to be 0.12 µM; against GSK3B [2], 0.174 µM; against GSK3A, 0.0024 µM; on human GSK3α, 0.0027 µM.
